Patent US20200268779A1, “USE OF SECOISOLARICIRESINOL DIGLUCOSIDES (SDGs) AND RELATED COMPOUNDS FOR PROTECTION AGAINST RADIATION-INDUCED CARDIOVASCULAR DYSFUNCTION” (THE TRUSTEES OF THE UNIVERSITY OF PENNSYLVANIA, priority 2017, published 2020)

System: mice exposed to thoracic radiation
Experiment: Thoracic radiation exposure in mice, non-invasive pulse oximetry (MouseOx)
Format: in vivo
Conditions: male C57/LJ mice, single fraction thoracic radiation, LGM2605 post exposure daily for 3 weeks or daily for 3 months, measured 130-140 days post radiation
Procedure: FIG. 1. Arterial Oxygen saturation (A) and Pulse Distention (B) were measured in living mice (n=5), between 130 and 140 days post single fraction thoracic radiation exposure.
Mice (male, C57/LJ) were exposed to thoracic radiation and evaluated for multiple cardio-pulmonary measurements such as arterial oxygen saturation and pulse distention using non-invasive Pulse Oximetry (MouseOx non-invasive vital signs monitor STARR Life Sciences Corp., Oakmont, Pa.).
Pulse Distention is the amplitude of the cardiac light absorption signals. Pulse Distention is a hemodynamic measurement obtained by the pulse oximetry software, a measure of the local blood flow (carotid arteries) at the sensor location. […] This could indicate that LGM2605 helps reduce downstream effects of inflammation in tissues other than the lung.

## COc1cc(C[C@@H](CO[C@@H]2O[C@H](CO)[C@@H](O)[C@H](O)[C@H]2O)[C@H](CO[C@@H]2O[C@H](CO)[C@@H](O)[C@H](O)[C@H]2O)Cc2ccc(O)c(OC)c2)ccc1O [LGM2605, secoisolariciresinol diglucoside]
Decreased significantly in irradiated controls (FIG. 1B)
  Pulse distention: remained at baseline levels
Vs irradiated controls and vehicle (FIG. 1A)
  Arterial blood oxygenation (arterial oxygen saturation): improved arterial blood oxygenation
